From paper PMC10179080, “In Vivo and In Vitro Characterization of Close Analogs of Compound KA-11, a New Antiseizure Drug Candidate” (International Journal of Molecular Sciences, 2023) come the findings set out here.

The structures appear in SMILES notation.

Data set [1] is described as follows: Metabolic stability in human liver microsomes. It counts as in vitro ADME. Conditions: pH 7.4, 120 min, TRIS buffer pH 7.4, 37 °C, read-out: Metabolic stability (% remaining after incubation with HLMs). The procedure:
(§1) The assays and protocols used for evaluating the KA-232 ADME-Tox parameters were similar to those described previously for compound KA-11 [6].
Figure S3 The MetaSite 6.0.1. software prediction of the most probably sites of KA-232
metabolism. The darker red color - the higher probability to be involved in the metabolism
pathway. The blue circle marked the site of compound with the highest probability of metabolic
Figure S4 UPLC spectra after 120 min incubation of compound KA-232 with human liver
microsomes in TRIS buffer pH=7.4 at 37 °C.
reaction mixture. Three metabolites M1, M2 and M3 were identified as well as the products
(m/z= 382.18, m/z=445.23) of compound degradation in physiological buffers (see also Figure […]

Data set [2] deals with seizure susceptibility in mice. Nature of the data set: Timed ivPTZ seizure threshold test. It counts as in vivo. How it is done: The experiments were conducted on adult male albino Swiss mice weighing 22–26 g. The animals were kept in colony cages under standardized laboratory conditions: natural light–dark cycle 12/12 h, temperature 20–24 °C, air humidity 45–65% and free access to tap water and food (chow pellets). After 7 days of adaptation to laboratory conditions, the animals were randomly assigned to experimental groups consisting of 8 mice. The experimental procedures described herein were approved by the Local Ethics Committee in Lublin, Poland (approval numbers: 71/2020 and 13/2021), and were conducted in accordance with EU Directive 2010/63/EU for animal experiments. All efforts were made to minimize animal suffering and to use only the number of animals necessary to produce reliable scientific data according to the 3Rs rule.
The timed ivPTZ seizure threshold test was carried out according to the method described by Socała et al.. KA-228 and KA-232 were suspended in a 1% solution of Tween 80 and administered i.p. 30 min before the test. In the experiment with KA-232, two separate control groups were used because the effects of KA-232 at a dose of 50 and 100 mg/kg were determined on different days.
The ED50 or TD50 values for tested substances in the acute animal models of seizures were calculated using the computer log-probit analysis. Subsequently, the ED50 and TD50 values (±SEM) were statistically analyzed using one-way analysis of variance (ANOVA) followed by the post hoc Dunnett’s test for multiple comparisons. Differences among values were considered statistically significant if p < 0.05. GraphPad Prism version 8 for Windows (GraphPad Software, San Diego, CA, USA) was used as a statistical software program. The results obtained from the acute ivPTZ test and grip strength test were evaluated by a Student’s t test. Fisher’s exact probability test was used to analyze protection from tonic forelimb and hindlimb extension in the ivPTZ test.
Figure 7 Effects of KA-11, KA-228 and KA-232 on the threshold for the first myoclonic twitch (A), generalized clonus (B) and forelimb tonus (C) in the ivPTZ test in mice. KA-228 and KA-232 were administered i.p., 30 min before seizure induction. Control animals received vehicle. Data are presented as means ± SD (mg/kg PTZ; n = 9–14 animals; the n value varies between groups because some animals were excluded from the study due to unsuccessful catheterization of the vein). The statistical significance for KA-228 and KA-232 was evaluated by a Student’s t test. Data for KA-11 were used from Socała et al. and re-analyzed using one-way ANOVA followed by Dunnett’s post hoc test. * p < 0.05, ** p < 0.01, *** p < 0.001, **** p < 0.0001 vs. the vehicle-treated group (GraphPad Prism 8).

The test system of data set [3] is Calcium Cav1.2 channel (verapamil site, antagonist radioligand). Nature of the data set: Radioligand binding, Cav1.2 verapamil site. Also noted: species or system rat. The settings on record: 10 µM. How it is done: (§2) Dysfunction of both sodium and calcium ion channels is known to be one of the crucial reasons behind the pathogenesis of seizures. Consequently, these ion channels are molecular targets for several clinically important ASDs such as lacosamide, lamotrigine, carbamazepine, oxcarbazepine and compounds currently under preclinical and clinical studies. Thus, for KA-228 and KA-232, we tested herein their binding profile toward the aforementioned ion channels at concentrations of 10 and 100 µM (Table 3). […] Apart from in vitro studies focused on explaining the mechanism of action, KA-232 was additionally tested for its interaction with the potassium channel (hERG) which is recognized as one of the most important ‘off-targets’ responsible for harmful arrhythmogenic activity. Thus, the interaction of potential drug candidates with hERG must be excluded at an early stage of development.
(§3) Binding studies were carried out commercially in Eurofins Laboratories (Poitiers, France or New Taipei City, Taiwan).

For the next data set, the system named is hepatoma HepG2. Description: Hepatotoxicity, HepG2 cell viability. It counts as cell-based, human.
Excerpt: as §1
(§4) Figure 9 The effect of KA-232 and the reference drug ketoconazole (KE) on CYP3A4 activity (A). The effect of KA-232 and the reference drug quinidine (QD) on CYP2D6 activity (B). The effect of KA-232 and the reference cytostatic drug doxorubicin (DX) on the HepG2 cell line (C) and the SH-SY5Y cell line (D) viability. Statistical significance (* p < 0.05, **** p < 0.0001) was analyzed by Graph Pad Prism 8 software using one-way ANOVA and Bonferroni’s Multiple Comparison Post Test.

The target of another data set is T1, CYP2D6 (Homo sapiens, UniProt P10635).
T1 construct: purchased Promega, Madison, WI, USA
T1 sequence (P10635 whole entry): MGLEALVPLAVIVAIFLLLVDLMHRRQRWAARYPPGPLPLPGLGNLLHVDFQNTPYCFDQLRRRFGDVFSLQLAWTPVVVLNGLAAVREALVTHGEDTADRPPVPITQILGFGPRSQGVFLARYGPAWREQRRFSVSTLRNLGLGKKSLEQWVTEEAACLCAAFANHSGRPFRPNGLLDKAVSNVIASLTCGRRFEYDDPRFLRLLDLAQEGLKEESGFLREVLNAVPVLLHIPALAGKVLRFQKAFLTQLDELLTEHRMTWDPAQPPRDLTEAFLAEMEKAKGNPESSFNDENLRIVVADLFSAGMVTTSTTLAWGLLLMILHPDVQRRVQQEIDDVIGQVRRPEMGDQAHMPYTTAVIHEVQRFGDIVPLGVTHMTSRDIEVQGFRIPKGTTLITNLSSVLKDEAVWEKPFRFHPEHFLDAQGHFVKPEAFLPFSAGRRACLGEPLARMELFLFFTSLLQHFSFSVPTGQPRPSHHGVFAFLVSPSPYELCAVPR
Description: CYP2D6 P450-Glo assay. It counts as in vitro ADME.
Excerpt: as §1, §4

Data set [4] concerns the target GABAA (α1,β2,γ2) (agonist radioligand) (Homo sapiens, UniProt P14867+P47870). Description: Radioligand binding, GABAA.
The next data set deals with T2, Potassium channel (hERG) (Homo sapiens, UniProt Q12809).
T2 construct: host or cells: HEK-293 cells
T2 sequence (Q12809 whole entry): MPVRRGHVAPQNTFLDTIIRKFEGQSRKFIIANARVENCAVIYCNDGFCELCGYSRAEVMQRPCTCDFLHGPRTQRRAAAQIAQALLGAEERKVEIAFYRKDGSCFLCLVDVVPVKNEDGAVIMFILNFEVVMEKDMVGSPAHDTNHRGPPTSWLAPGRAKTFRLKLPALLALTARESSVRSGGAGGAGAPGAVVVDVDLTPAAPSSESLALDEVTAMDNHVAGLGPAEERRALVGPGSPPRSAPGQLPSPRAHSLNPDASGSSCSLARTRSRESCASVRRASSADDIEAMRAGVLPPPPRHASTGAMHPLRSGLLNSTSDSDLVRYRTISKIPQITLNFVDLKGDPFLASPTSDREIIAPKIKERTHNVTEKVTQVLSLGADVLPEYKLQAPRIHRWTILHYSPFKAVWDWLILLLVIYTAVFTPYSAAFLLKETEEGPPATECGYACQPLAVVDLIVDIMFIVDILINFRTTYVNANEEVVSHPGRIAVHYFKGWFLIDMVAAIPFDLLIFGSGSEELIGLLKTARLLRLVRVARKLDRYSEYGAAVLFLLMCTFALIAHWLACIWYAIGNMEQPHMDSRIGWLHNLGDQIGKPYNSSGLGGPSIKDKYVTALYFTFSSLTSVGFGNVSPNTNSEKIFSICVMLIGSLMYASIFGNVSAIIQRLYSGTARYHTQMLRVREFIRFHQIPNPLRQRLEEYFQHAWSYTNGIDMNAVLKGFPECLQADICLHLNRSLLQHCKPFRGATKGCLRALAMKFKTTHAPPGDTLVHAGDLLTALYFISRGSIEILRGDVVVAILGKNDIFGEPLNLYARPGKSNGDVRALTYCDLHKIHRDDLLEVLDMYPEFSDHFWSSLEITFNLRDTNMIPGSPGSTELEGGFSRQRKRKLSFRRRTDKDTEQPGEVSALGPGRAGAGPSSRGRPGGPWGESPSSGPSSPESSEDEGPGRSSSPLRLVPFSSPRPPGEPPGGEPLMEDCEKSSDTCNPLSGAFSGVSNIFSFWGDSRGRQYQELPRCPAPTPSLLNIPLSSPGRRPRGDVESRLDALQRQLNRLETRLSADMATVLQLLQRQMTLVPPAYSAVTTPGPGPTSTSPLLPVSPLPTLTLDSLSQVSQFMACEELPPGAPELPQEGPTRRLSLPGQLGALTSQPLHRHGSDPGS
Nature of the data set: Radioligand binding, potassium channel (hERG). The settings on record: 100 µM; KA-11 value not published before. The procedure:
as §2, §3
For orientation: Block of hERG is tested as a sign of cardiac risk.

The target of the next data set is T3, hERG potassium channel (Homo sapiens, UniProt Q12809).
T3 construct: host or cells: HEK-293 cells
T3 sequence (Q12809 whole entry): as above
Nature of the data set: Radioligand binding, potassium channel (hERG). The settings on record: human, human recombinant HEK-293 cells expressing hERG, KA-11 value not published before, read-out: % Inhibition of Control Specific Binding. How it is done: as §2, §3

[5] abbreviates: 50 mg/kg i.p., 30 min before ivPTZ.

Sequence of GABAA (α1,β2,γ2) (agonist radioligand) (P14867 28-456): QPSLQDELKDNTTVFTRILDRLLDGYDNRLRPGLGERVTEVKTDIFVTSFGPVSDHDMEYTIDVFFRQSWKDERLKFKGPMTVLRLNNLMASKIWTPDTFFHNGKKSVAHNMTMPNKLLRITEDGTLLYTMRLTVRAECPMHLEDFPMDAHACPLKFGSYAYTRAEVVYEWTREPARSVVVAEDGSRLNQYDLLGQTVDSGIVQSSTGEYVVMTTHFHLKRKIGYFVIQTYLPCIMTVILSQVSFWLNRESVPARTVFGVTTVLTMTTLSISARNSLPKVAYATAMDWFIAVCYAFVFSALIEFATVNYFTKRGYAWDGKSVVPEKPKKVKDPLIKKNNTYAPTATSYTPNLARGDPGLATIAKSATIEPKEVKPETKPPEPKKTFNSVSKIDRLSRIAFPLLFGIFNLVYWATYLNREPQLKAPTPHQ
Sequence of GABAA (α1,β2,γ2) (agonist radioligand) (P47870 25-512 limits assumed): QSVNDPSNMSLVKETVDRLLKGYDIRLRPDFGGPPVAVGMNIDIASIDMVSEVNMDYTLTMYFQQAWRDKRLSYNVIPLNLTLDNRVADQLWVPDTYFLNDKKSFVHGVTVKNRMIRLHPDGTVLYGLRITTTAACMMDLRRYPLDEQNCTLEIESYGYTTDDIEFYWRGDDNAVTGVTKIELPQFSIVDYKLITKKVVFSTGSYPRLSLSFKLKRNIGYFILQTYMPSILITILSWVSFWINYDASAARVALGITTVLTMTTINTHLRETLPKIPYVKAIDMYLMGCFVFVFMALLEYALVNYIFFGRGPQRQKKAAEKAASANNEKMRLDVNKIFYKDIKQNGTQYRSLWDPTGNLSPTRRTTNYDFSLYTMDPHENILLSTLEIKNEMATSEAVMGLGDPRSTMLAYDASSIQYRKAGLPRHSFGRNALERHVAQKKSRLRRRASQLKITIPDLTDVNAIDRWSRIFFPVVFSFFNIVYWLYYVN
Sequence of GABAA (α1,β2,γ2) (agonist radioligand) (P18507 40-475 partner): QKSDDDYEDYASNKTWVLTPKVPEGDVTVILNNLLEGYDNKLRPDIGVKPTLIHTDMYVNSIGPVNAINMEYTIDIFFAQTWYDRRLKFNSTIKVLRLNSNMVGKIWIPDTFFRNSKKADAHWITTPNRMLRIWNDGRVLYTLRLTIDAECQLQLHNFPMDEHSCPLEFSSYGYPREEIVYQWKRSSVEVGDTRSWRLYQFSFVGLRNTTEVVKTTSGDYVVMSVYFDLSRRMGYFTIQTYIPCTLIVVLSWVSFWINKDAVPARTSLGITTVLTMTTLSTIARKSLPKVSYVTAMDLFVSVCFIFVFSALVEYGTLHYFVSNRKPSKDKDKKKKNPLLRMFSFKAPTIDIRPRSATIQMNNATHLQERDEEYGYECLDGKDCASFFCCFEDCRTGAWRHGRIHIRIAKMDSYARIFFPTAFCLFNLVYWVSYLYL

As to `CC(C(=O)N1CCN(c2cccc(C(F)(F)F)c2)CC1)N1C(=O)CC(N(C)C)C1=O.Cl` (stereo not drawn) [KA-232, 3-(Dimethylamino)-1-(1-oxo-1-(4-(3-(trifluoromethyl)phenyl)piperazin-1-yl)propan-2-yl)pyrrolidine-2,5-dione hydrochloride], the melting point (commonly the temperature of the solid-liquid transition) was in the range of 141.4 to 143.5 °C. Besides, the amount remaining (commonly what is left of the initial amount, in per cent) at 2 h in [1] was roughly 73%. In data set [2] (setting [5]), the “effect on threshold for forelimb tonus” value is recorded as “did not significantly affect”, the “effect on threshold for generalized clonus” value is on record as “did not significantly affect” and the “effect on threshold for the first myoclonic twitch” value is reported as “did not significantly affect”. In addition, the “mice in which hindlimb tonus did not occur” value in data set [2] (50 mg/kg i.p., p < 0.01 vs. control) is on record as 5 out of 9. Besides, in data set [2] (100 mg/kg i.p., p < 0.0001), the “effect on threshold for clonic seizures” value is given as “slightly raised”. Further, the “effect on threshold for myoclonic seizures” value in [2] (100 mg/kg i.p., p < 0.001) is “slightly raised”. Moreover, the “mice in which forelimb tonus was completely abolished” value in data set [2] (100 mg/kg i.p., p < 0.01 vs. control) is 7 out of 11. Moreover, the “% Inhibition of Control Specific Binding” value in data set [3] was −2.8 (10) %. Moreover, the “HepG2 viability (% of control ± SD)” value in the data set on hepatoma HepG2 (10 µM) is on record as 89.44 ± 10.22 % of control. In the data set on hepatoma HepG2 (100 µM), the HepG2 cell viability result is listed as “approximately 78 % of control”. Moreover, the “CYP2D6 activity (% of control ± SD)” value on CYP2D6 (10 µM) was 100.96 ± 2.57 % of control. In addition, the “effect on CYP2D6 activity” value on CYP2D6 (at 0.1 and 1 µM) was “slight induction”. Besides, in [4] (10 µM), the “% Inhibition of Control Specific Binding” value is listed as “did not interact”. Further, the inhibition (usually the relative decrease from the control value, in per cent) at 10 µM in data set [4] (read-out: % Inhibition of Control Specific Binding) was -6.7%. Besides, the “% Inhibition of Control Specific Binding” value at Potassium channel (hERG) is given as “did not interact”. Moreover, the inhibition at 60 min, 100 µM at hERG potassium channel was 18.3%.
